According to patent US6607522B1, “Methods for tissue welding using laser-activated protein solders” (General Hospital Corporation, priority 2000, dated 2003):

Assays:
[1] = in vitro; cited from earlier work
[2] = test system: 5 mm incision on equatorial sclera of human cadaveric eyes; test: Leaking pressure of laser-welded scleral incisions in cadaveric eyes
Source text: Welding Procedure: To measure leaking pressures, an 18-gauge butterfly needle was connected by plastic tubing to a water bottle. The inner pressure in the bottle was controlled by a hand-pumped sphygmomanometer. Nonpreserved cadaveric eyes were defrosted in room-temperature water. The butterfly needle was inserted in the vitreous cavity through equatorial sclera, and the eye was pressurized to 25 to 30 mm Hg. The corneal epithelium was then removed at the wound site, and a caliper set on 5 mm used to make the extent of the incision on equatorial sclera, perpendicular to the limbus. All incisions were placed equidistant from the limbus, and areas of blue or thin sclera were avoided. […] The exact power output of the fiber was measured using a power meter (model 210; Coherent, Palo Alto, Calif.). Argon laser goggles (Glendale Protective Technologies, Lakeland, Fla.) were worn, which allowed viewing of the fluorescence from the Ce6 (emission 670 nm). To set the remaining adhesive on the scleral surface, which surrounded the wound, additional laser was applied until loss of fluorescence of the dye, which took another 30 to 45 seconds.
Leaking Pressure: Leaking pressures were then measured using the sphygmomanometer, which was increasingly pressurized in approximately 10-mm Hg increments. Leaking pressure was recorded the moment the wound leaked air or fluid. […]

Molecule | triplet yield [1] | Mean Leaking Pressure ([2]; argon blue-green laser 488-514 nm, total energy 24-57 J, 60-120 s, mean ± spread) | Mean Leaking Pressure/Total Energy Ratio ([2]; leaking pressure in mm Hg, total energy in joules)
CC1(C)C(/C=C/C=C/C=C/C=C2\N(CCCCS(=O)(=O)O)c3ccc4ccccc4c3C2(C)C)=[N+](CCCCS(=O)(=O)[O-])c2ccc3ccccc3c21 [indocyanine green] | 0.11 |  | 
BSA − Ce6 conjugate: Covalent bovine serum albumin-chlorin e6 conjugate solder; protein 5.2 mM, Ce6 6.2 mM, ratio 0.84 |  | 78.0 ± 11.9 millimeters of mercury | 1.75 ± 0.26
